Assay [1] has as its target T1, Igl-C3 (Entamoeba histolytica, UniProt Q964D2).
T1 construct: gene igl1; CRD-like region, residues 989-1,088 (100 aa), His-tagged, pET-19b, E. coli BL21 Star(DE3)pLysS
Nature of the assay: competition with FITC-PNA on Caco-2 cells; hemagglutination inhibition. Format: cell-based. As to conditions: 60 mM sugar, 300 nM protein, on ice; also hemagglutination of human group O erythrocytes.

The target in assay [2] is T2, Igl-C (Entamoeba histolytica, UniProt Q964D2).
T2 construct: gene igl1; C-terminal segment, 486 aa (contains Igl-C0 to C3, ends at about residue 1,088), His-tagged, pET-19b, E. coli BL21 Star(DE3)pLysS
T2 sequence (Q964D2 entry or part of it): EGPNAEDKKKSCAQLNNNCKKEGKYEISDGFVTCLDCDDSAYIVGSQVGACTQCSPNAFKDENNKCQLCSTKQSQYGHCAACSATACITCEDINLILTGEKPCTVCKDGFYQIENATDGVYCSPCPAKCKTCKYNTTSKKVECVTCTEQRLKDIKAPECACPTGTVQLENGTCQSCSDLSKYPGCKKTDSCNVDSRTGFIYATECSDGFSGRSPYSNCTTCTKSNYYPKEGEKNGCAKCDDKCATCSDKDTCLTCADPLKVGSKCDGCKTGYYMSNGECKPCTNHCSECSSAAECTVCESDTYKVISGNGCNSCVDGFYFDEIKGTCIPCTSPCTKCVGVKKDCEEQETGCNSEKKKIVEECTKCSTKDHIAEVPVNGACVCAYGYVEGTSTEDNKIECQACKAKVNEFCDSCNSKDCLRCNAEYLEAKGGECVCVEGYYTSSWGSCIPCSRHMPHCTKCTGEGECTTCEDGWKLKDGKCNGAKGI
The assay is described as follows: competition with FITC-PNA on Caco-2 cells. Format: cell-based. As to conditions: 60 mM sugar, 300 nM protein, on ice.

T1 sequence (Q964D2 entry or part of it): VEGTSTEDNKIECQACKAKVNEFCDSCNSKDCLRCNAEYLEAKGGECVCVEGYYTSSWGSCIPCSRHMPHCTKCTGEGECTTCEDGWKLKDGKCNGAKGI

Consider `OC[C@H]1OC(O)[C@H](O)[C@@H](O)[C@H]1O` (stereo partly shown) [Gal, galactose], for which the “competition with FITC-PNA on Caco-2 cells; hemagglutination inhibition” value in assay [1] is “only Igl-C3 exhibited obvious hemagglutinating activity, which could be inhibited by Gal/GalNAc”. Further, in assay [2], the “competition with FITC-PNA on Caco-2 cells” value is “this competitive process could in turn be weakened by the addition of Gal and GalNAc”.

`CC(=O)N[C@H]1C(O)O[C@H](CO)[C@H](O)[C@@H]1O` (stereo partly drawn) [GalNAc, N-acetyl-D-galactosamine]: the “competition with FITC-PNA on Caco-2 cells; hemagglutination inhibition” value in assay [1] is “only Igl-C3 exhibited obvious hemagglutinating activity, which could be inhibited by Gal/GalNAc”. Besides, the “competition with FITC-PNA on Caco-2 cells” value in assay [2] was “this competitive process could in turn be weakened by the addition of Gal and GalNAc”.

For the origin of these results see article PMC11537071, “Identification and characterization of a carbohydrate recognition domain-like region in Entamoeba histolytica Gal/GalNAc lectin intermediate subunit” (Microbiology Spectrum, 2024).
